Laboratory results from patent US20250152685A1, “METHOD OF MAKING A PERSONALIZED CANCER VACCINE” (FLOW PHARMA, INC., priority 2019, published 2025).

Target: DRB3*0202 (Homo sapiens, UniProt P01903+P79483, A212P/D57E/F66Y/L67A/R103Q/R218S/R40L/S89Y/T80R/V86D/Y55F/Y59H)
Assay: peptide affinity binding assay (in-vitro peptide-MHC binding affinity)
Details: PADRE and DRB3*0202

Chain of DRB3*0202 (P01903 26-254 limits assumed): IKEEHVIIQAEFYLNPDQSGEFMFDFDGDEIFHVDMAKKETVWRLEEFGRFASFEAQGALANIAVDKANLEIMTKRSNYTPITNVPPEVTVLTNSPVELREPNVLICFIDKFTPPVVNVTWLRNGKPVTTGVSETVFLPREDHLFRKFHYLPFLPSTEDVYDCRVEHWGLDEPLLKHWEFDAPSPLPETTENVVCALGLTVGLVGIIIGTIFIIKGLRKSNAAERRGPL
Chain of DRB3*0202 (P79483 30-266 R40L/Y55F/D57E/Y59H/F66Y/L67A/T80R/V86D/S89Y/R103Q/A212P/R218S limits assumed): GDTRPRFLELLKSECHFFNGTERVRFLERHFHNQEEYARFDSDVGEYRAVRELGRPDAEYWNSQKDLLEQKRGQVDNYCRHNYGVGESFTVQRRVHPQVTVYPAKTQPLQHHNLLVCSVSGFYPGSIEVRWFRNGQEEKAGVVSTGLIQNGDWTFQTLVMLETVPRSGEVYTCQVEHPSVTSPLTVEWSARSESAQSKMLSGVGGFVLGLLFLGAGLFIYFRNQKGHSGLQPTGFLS

With `CC(C)C[C@H](NC(=O)[C@@H](NC(=O)[C@H](Cc1c[nH]c2ccccc12)NC(=O)[C@H](C)NC(=O)[C@H](C)NC(=O)[C@@H](NC(=O)[C@H](Cc1ccccc1)NC(=O)[C@H](CCCCN)NC(=O)[C@H](C)N)C(C)C)[C@@H](C)O)C(=O)N[C@@H](CCCCN)C(=O)N[C@@H](C)C(=O)N[C@@H](C)C(=O)N[C@@H](C)C(=O)O` [PADRE] the “peptide-MHC binding affinity before and after the addition of an infrared fluorophore ligand” value was “essentially unchanged”.
